Where a name gives a salt, the structure may show the parent alone.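 96-well plates; 48 h exposure; 5 concentrations. Endpoints by linear interpolation between flanking doses. Not reached: highest tested concentration assigned. Here, GI50 denotes the concentration required for 50% inhibition of growth.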 Active and inactive are the calls of the source. Rule as the data show it: active = GI50 up to about 1.1 µM and inactive = higher.
Assays:
Assay in all cases: NCI-60 cell line screen, 48 h
[1] = tested on: HCC 2998
[2] = tested on: UACC-257
[3] = tested on: COLO 205
[4] = tested on: ACHN
[5] = tested on: MOLT-4
[6] = tested on: HOP-92
[7] = tested on: HT-29
[8] = tested on: NCI-H23
[9] = tested on: CAKI-1
[10] = tested on: SK-OV-3
[11] = tested on: UACC-62
[12] = tested on: MCF7
[13] = tested on: TK-10
[14] = tested on: SK-MEL-28
[15] = tested on: SN12C
[16] = tested on: U-251
[17] = tested on: LOX IMVI
[18] = tested on: RXF 393
[19] = tested on: SF-268
[20] = tested on: PC-3

Row | SMILES | GI50 [1] | GI50 [2] | GI50 [3] | GI50 [4] | GI50 [5] | GI50 [6] | GI50 [7] | GI50 [8] | GI50 [9] | GI50 [10] | GI50 [11] | GI50 [12] | GI50 [13] | GI50 [14] | GI50 [15] | GI50 [16] | GI50 [17] | GI50 [18] | GI50 [19] | GI50 [20]
1 | O=C(Nc1ccc2nc(-c3ccccc3)cn2c1)Oc1ccccc1 | 25.2 µM (inactive) | 36.1 µM (inactive) | 48.6 µM (inactive) | > 100 µM (inactive) | 40.6 µM (inactive) | > 100 µM (inactive) | 43.1 µM (inactive) | 99.1 µM (inactive) | 97.9 µM (inactive) | > 100 µM (inactive) | 37.9 µM (inactive) | 35.4 µM (inactive) | 53.7 µM (inactive) | > 100 µM (inactive) | 66.8 µM (inactive) | 52.7 µM (inactive) | 52 µM (inactive) | 0.893 µM (active) | > 100 µM (inactive) | > 100 µM (inactive)
2 | COc1cc(C#CC(=O)OC/C=C/c2ccc3c(c2)OCO3)cc(OC)c1OC | 26.2 µM (inactive) | 26.8 µM (inactive) | 19.1 µM (inactive) | 29.2 µM (inactive) | – | 17.8 µM (inactive) | > 100 µM (inactive) | 25.2 µM (inactive) | 22.1 µM (inactive) | 27.6 µM (inactive) | 18.8 µM (inactive) | 19.5 µM (inactive) | 21.4 µM (inactive) | > 100 µM (inactive) | 31.2 µM (inactive) | 29.4 µM (inactive) | 20.1 µM (inactive) | 12.3 µM (inactive) | 19.5 µM (inactive) | 21.8 µM (inactive)
3 | CCN(C(=S)N[C@@H](Cc1ccccc1)C(=O)N[C@@H](CC(C)C)C(=O)OC)c1ccccc1 | > 100 µM (inactive) | > 100 µM (inactive) | 49.2 µM (inactive) | 47.3 µM (inactive) | 23.4 µM (inactive) | > 100 µM (inactive) | 46 µM (inactive) | 71.4 µM (inactive) | > 100 µM (inactive) | > 100 µM (inactive) | > 100 µM (inactive) | 34 µM (inactive) | > 100 µM (inactive) | > 100 µM (inactive) | > 100 µM (inactive) | 50.7 µM (inactive) | > 100 µM (inactive) | > 100 µM (inactive) | – | 63.1 µM (inactive)
4 | O=S1(=O)NC2CCC3NS(=O)(=O)NC4CCC(N1)N4S(=O)(=O)N23 (stereo not given) | > 100 µM (inactive) | > 100 µM (inactive) | > 100 µM (inactive) | > 100 µM (inactive) | – | > 100 µM (inactive) | > 100 µM (inactive) | > 100 µM (inactive) | > 100 µM (inactive) | > 100 µM (inactive) | > 100 µM (inactive) | > 100 µM (inactive) | > 100 µM (inactive) | > 100 µM (inactive) | > 100 µM (inactive) | > 100 µM (inactive) | > 100 µM (inactive) | > 100 µM (inactive) | > 100 µM (inactive) | > 100 µM (inactive)
5 | N=C1C=C(N)C(=O)c2[nH]c(=O)ccc21 | 19.3 µM (inactive) | 5.07 µM (inactive) | 1.73 µM (inactive) | 1.73 µM (inactive) | 3.5 µM (inactive) | 2.11 µM (inactive) | 2.37 µM (inactive) | 2.23 µM (inactive) | 5.16 µM (inactive) | 13.8 µM (inactive) | 2.3 µM (inactive) | 0.351 µM (active) | 12.4 µM (inactive) | 20.6 µM (inactive) | 1.76 µM (inactive) | 2.04 µM (inactive) | 2 µM (inactive) | 1.87 µM (inactive) | 2.04 µM (inactive) | 1.36 µM (inactive)
6 | CCC[C@H](C)C[C@H](C)C[C@H](C)/C=C(\C)[C@@H](O)[C@@H](C)C(=O)CC | 17 µM (inactive) | 20.1 µM (inactive) | – | 21.9 µM (inactive) | 21.4 µM (inactive) | 20.8 µM (inactive) | 19.5 µM (inactive) | 18.9 µM (inactive) | 22.4 µM (inactive) | 36.2 µM (inactive) | 17.1 µM (inactive) | 21.3 µM (inactive) | 23.2 µM (inactive) | 18.7 µM (inactive) | 18.8 µM (inactive) | 22.4 µM (inactive) | 20.4 µM (inactive) | 20.7 µM (inactive) | 20.9 µM (inactive) | 20 µM (inactive)
7 | CC1(C)OC1CC/C(=C/CBr)CBr (stereo not given) | 16 µM (inactive) | 14.9 µM (inactive) | 15.9 µM (inactive) | 16.9 µM (inactive) | 16.7 µM (inactive) | 15.4 µM (inactive) | 14.9 µM (inactive) | 15.5 µM (inactive) | 17.9 µM (inactive) | 19 µM (inactive) | – | 15 µM (inactive) | 18.2 µM (inactive) | 17.2 µM (inactive) | 15.6 µM (inactive) | 15.6 µM (inactive) | 10.2 µM (inactive) | 17 µM (inactive) | 15.5 µM (inactive) | 15.6 µM (inactive)
8 | CN(C)C1(N(C)C)Oc2c(c(=O)n(C)c(=O)n2C)C(c2ccc(F)cc2)C1(F)F (stereo not given) | > 100 µM (inactive) | > 100 µM (inactive) | > 100 µM (inactive) | > 100 µM (inactive) | – | > 100 µM (inactive) | – | > 100 µM (inactive) | > 100 µM (inactive) | > 100 µM (inactive) | > 100 µM (inactive) | > 100 µM (inactive) | > 100 µM (inactive) | > 100 µM (inactive) | – | > 100 µM (inactive) | > 100 µM (inactive) | > 100 µM (inactive) | > 100 µM (inactive) | > 100 µM (inactive)
9 | O=C(NC(Nc1ccc(F)c(Cl)c1)(C(F)(F)F)C(F)(F)F)C(C(F)(F)F)C(F)(F)F | > 100 µM (inactive) | 32.7 µM (inactive) | 28.5 µM (inactive) | 13.5 µM (inactive) | 15 µM (inactive) | 29.2 µM (inactive) | 21.9 µM (inactive) | 23.3 µM (inactive) | 32.4 µM (inactive) | 52.7 µM (inactive) | – | 33 µM (inactive) | 36.4 µM (inactive) | 50.7 µM (inactive) | 32.5 µM (inactive) | 29.2 µM (inactive) | 12 µM (inactive) | 23.2 µM (inactive) | 29.1 µM (inactive) | 24.8 µM (inactive)
10 | C[C@]12CC[C@H]3[C@@H](CC=C4C[C@@H](O)CC[C@@]43C)[C@@H]1C/C(=C/c1ccccc1)[C@@H]2O | 17.9 µM (inactive) | 15.6 µM (inactive) | > 53.6 µM (inactive) | 16.4 µM (inactive) | > 32.7 µM (inactive) | 32.4 µM (inactive) | 28.3 µM (inactive) | 15.9 µM (inactive) | 30.3 µM (inactive) | 37.6 µM (inactive) | 17.8 µM (inactive) | > 33 µM (inactive) | 27.8 µM (inactive) | > 44.6 µM (inactive) | – | > 35.9 µM (inactive) | > 33.6 µM (inactive) | > 25.1 µM (inactive) | 29.3 µM (inactive) | 18.9 µM (inactive)
11 | COc1cccc(NC(=O)c2c(SC)c(C#N)c(=O)n(N)c2N)c1 | > 100 µM (inactive) | > 100 µM (inactive) | > 100 µM (inactive) | > 100 µM (inactive) | 41.8 µM (inactive) | 47.4 µM (inactive) | 52 µM (inactive) | – | > 100 µM (inactive) | 44.5 µM (inactive) | 61.5 µM (inactive) | > 100 µM (inactive) | > 100 µM (inactive) | > 100 µM (inactive) | > 100 µM (inactive) | 68.4 µM (inactive) | 88.1 µM (inactive) | > 100 µM (inactive) | 72.1 µM (inactive) | 49.8 µM (inactive)
12 | CC(C)CC(NC(=O)C(CSc1ccc([N+](=O)[O-])cc1)Cc1ccccc1)C(=O)Nc1ccccc1 (stereo not given) | > 100 µM (inactive) | > 100 µM (inactive) | > 100 µM (inactive) | 80.7 µM (inactive) | 59 µM (inactive) | > 100 µM (inactive) | – | > 100 µM (inactive) | 72.1 µM (inactive) | > 100 µM (inactive) | > 100 µM (inactive) | 63.7 µM (inactive) | 58.2 µM (inactive) | 98.2 µM (inactive) | > 100 µM (inactive) | > 100 µM (inactive) | > 100 µM (inactive) | > 100 µM (inactive) | – | > 100 µM (inactive)
13 | CCCCCCCCCC[C@@H](O)[C@@H]1CC[C@@H]([C@@H]2CC[C@@H]([C@@H](O)CCCCCCCCCC[C@H](O)CC3=CC(C)OC3=O)O2)O1 (stereo not given in full) | 4.31 µM (inactive) | 0.356 µM (active) | 3.94 µM (inactive) | 0.0355 µM (active) | 1.77 µM (inactive) | 2.26 µM (inactive) | 2.51 µM (inactive) | – | 12.1 µM (inactive) | 3.92 µM (inactive) | 1.44 µM (inactive) | 1.44 µM (inactive) | 3.48 µM (inactive) | 3.36 µM (inactive) | 5.62 µM (inactive) | 6.03 µM (inactive) | 0.834 µM (active) | 3.22 µM (inactive) | 3.87 µM (inactive) | 2.34 µM (inactive)
14 | CN[C@@H]1[C@H](O)[C@H](NC)[C@H]2O[C@@]3(O)C(=O)C[C@@H](C)O[C@H]3O[C@@H]2[C@H]1O [SPECTINOMYCIN SULFATE] | > 100 µM (inactive) | > 100 µM (inactive) | > 100 µM (inactive) | > 100 µM (inactive) | > 100 µM (inactive) | > 100 µM (inactive) | > 100 µM (inactive) | > 100 µM (inactive) | > 100 µM (inactive) | > 100 µM (inactive) | > 100 µM (inactive) | > 100 µM (inactive) | – | > 100 µM (inactive) | > 100 µM (inactive) | > 100 µM (inactive) | > 100 µM (inactive) | > 100 µM (inactive) | > 100 µM (inactive) | > 100 µM (inactive)
